Measurements published in patent publication US20190106460A1, “BINDING INHIBITORS OF THE BETA. TRANSDUCIN REPEAT-CONTAINING PROTEIN” (priority 2011, published 2019).
Where two headings read alike, the source gives them in different places. Starred links: 1 amine or outer side, 2 acyl side, 3 side chain; linkers in the order of their positions; H or OH if unused. Non-standard residues stand in square brackets, D forms with d. Residues, ends and D or L forms follow the SMILES beside them. Phe(4-NO2) = N[C@@H](Cc1ccc([N+](=O)[O-])cc1)C(=O)O; Phe(3-F) = N[C@@H](Cc1cccc(F)c1)C(=O)O; 1Nal = N[C@@H](Cc1cccc2ccccc12)C(=O)O; Phe(2-F) = N[C@@H](Cc1ccccc1F)C(=O)O; pS = N[C@@H](COP(=O)(O)O)C(=O)O; Suc = O=C(CCC(=O)[*:2])[*:1]

Columns and labels:
[1] = biological target: βTrCP (Homo sapiens, UniProt Q9Y297); assay: Fluorescence polarisation (FP) binding assay with fluorescein-tagged IκB peptide
Target sequence in this assay (P63208 whole entry partner, one chain of several): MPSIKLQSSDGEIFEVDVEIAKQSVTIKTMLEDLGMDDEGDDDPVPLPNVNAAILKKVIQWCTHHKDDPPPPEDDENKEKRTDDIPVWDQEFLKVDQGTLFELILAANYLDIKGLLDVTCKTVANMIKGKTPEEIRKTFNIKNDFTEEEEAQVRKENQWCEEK

[2] = biological target: FBW7/Skp1 (Homo sapiens, UniProt Q969H0); assay: Selectivity assay vs other E3s: Fbw7; assay type: biochemical; conditions: for inhibition at 100 µM: value in brackets, read-out: % Inhibition Fbw7 @ (100 μM); for inhibition at 10 µM: read-out: % Inhibition Fbw7 @ 10 μM
How it was run: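 FBW7/Skp1 E3 ubiquitination of cyclin E substrate in 50 mM HEPES pH 7.5, 75 mM NaCl, 1 mM DTT; preincubated 30 min at room temperature before Mg/ATP, then 60 min more. Products resolved by 10% SDS-PAGE and immunoblotted with anti-cyclin E.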

[3] = biological target: T1, βTrCP (Homo sapiens, UniProt Q9Y297); assay: Biotin pull down assay with biotinylated IκB peptide; assay type: binding; conditions: for Biotin Pulldown Assay 10 μM: 10 μM compound; for Biotin Pulldown Assay 100 μM: 100 μM compound
T1 sequence (Q9Y297 1-605): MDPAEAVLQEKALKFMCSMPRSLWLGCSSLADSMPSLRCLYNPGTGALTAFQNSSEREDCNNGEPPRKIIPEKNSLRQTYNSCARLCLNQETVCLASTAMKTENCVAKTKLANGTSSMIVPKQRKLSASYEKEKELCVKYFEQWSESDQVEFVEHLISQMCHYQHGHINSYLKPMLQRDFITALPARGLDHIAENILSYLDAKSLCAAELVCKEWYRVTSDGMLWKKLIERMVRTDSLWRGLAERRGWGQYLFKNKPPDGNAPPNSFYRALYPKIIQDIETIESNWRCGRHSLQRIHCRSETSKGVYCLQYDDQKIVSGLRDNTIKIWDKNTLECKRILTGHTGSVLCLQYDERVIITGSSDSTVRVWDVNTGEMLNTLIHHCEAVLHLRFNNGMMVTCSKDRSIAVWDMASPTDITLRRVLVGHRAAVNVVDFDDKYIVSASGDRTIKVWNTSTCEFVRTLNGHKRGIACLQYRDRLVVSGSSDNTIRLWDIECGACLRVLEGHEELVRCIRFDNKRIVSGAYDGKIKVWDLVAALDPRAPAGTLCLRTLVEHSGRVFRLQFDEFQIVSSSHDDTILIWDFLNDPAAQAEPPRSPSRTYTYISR

[4] = biological target: Skp2 (Homo sapiens, UniProt Q13309); assay: Selectivity assay vs other E3s: Skp2; assay type: biochemical; conditions: for inhibition at 100 µM: value in brackets, read-out: % Inhibition Skp2 @ (100 μM); for inhibition at 10 µM: read-out: % Inhibition Skp2 @ 10 μM
How it was run: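 Skp2 ubiquitination was measured in master mixes of 50 mM Herpes buffer, pH 7.5, with 75 mM NaCl and 1 mM DTT, lacking Mg or ATP. Test compounds were preincubated for 30 minutes at room temperature, Mg/ATP was added for a further 60 minutes, and reactions were boiled in SDS loading buffer, resolved on 10% SDS-PAGE, blotted to nitrocellulose and probed with HRP-Streptavidin.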

[5] = biological target: β-TrCP1/Skp1 (Homo sapiens, UniProt Q9Y297); assay: βTrCP ubiquitination assay (Ub assay); assay type: biochemical; conditions: for Ub Assay 10 μM: 10 μM compound; for Ub Assay 100 μM: 100 μM compound
Experimental: βTrCP Ubiquitination Assay and Selectivity Assays
0.5 μM Peptide substrate (biotin)
Master mixes were prepared in a 50 mM Herpes buffer at pH 7.5, in 75 mM NaCl and 1 mM DTT without Mg or ATP and peptides were added to a final concentration of 100 μM. Reactions were incubated at room temperature for 30 minutes and then Mg/ATP was added to the mix. Reactions were further incubated for an additional 60 minutes and then stopped by adding SDS gel loading buffer and boiled for 5 minutes. Reactions were run on SDS-PAGE (10%) and transferred to nitrocellulose membranes and probed with HRP-Streptavidin.
Candidate compounds were tested in duplicate at both 10 and 100 μM against the E3 ligase cascades βTrCP(IκBα) and βTrCP(β-catenin). The E3 assays were carried out according to the component concentrations detailed in Table 9. In each case the E2 was HA,6His-UbcH3-(hu,FL), the E1 was 6His-UBE1-(hu,FL) and the ubiquitin (Sigma U6253) was biotinylated at a 5:1 ratio. Substrate phosphorylation was performed in the absence of compound; consequently any observed signal modulation should not reflect inhibition of the up-stream kinase reaction. All other steps (E1, E2 and substrate ubiquitination) were carried out in the presence of compound. The stopped reaction mix (10 μl) was added to an ECL plate loaded with anti c-Myc ( 1/500 Dilution, Millipore 05-724) and blocked with 5% BSA. Binding was allowed to proceed for 1 hour at RT before a wash step (3 40 μl PBST washes). Detection was achieved by binding SA-Ru TAG at 1 μg/ml (1 hour @ RT, 3 40 μl PBST washes) before reading on an MSD Sector Imager 6000.
Assays were performed as described above

[6] = biological target: βTrCP/Skp1 (Homo sapiens, UniProt Q9Y297); assay: Surface plasmon resonance (SPR), Biacore T200; assay type: binding; conditions: apparent KD averaged over both surfaces
Experimental: Surface Plasmon Resonance (SPR)
Experiments were carried out using the Biacore T200 SPR detection system. This system exploits the phenomenon of surface plasmon resonance (SPR) to monitor interactions between molecules. The system involves the attachment of one interacting partner to a surface (an appropriate sensor chip) while the other interacting partner is passed over it in solution. The binding of molecules to the surface generates an SPR response (measured in response units (RU)) that is proportional to the mass and amount of the biomolecule (in this case βTrCP/Skp1) bound to the chip. The relative responses obtained are dependent on the concentration of the molecule binding. At RUmaximum, the attached protein's binding sites are saturated. Binding events can be followed in real time and a range of interaction characteristics can be determined including kinetics, specificity of interactions and the concentration of specific molecules in a sample.
As βTrCP was His tagged, an NTA sensor chip was used. This sensor chip has a dextran surface matrix with immobilized nitrilotriacetic acid (NTA) which provides a means of capturing polyHis-tagged proteins through Nickel chelation. It was hoped that addition of Ni^+ would orient the protein in a specific (and hopefully active) manner as it is covalently immobilised via amine coupling. Addition of EDC:NHS (N-ethyl-N′-(3-[…])-carbodiimide:N-hydroxysuccinimide) converts carboxyl groups on the dextran sensor chip surface to succinamide esters which readily form covalent bonds with primary amines. Each chip contains four flow cells (each a separate surface) which means that compounds/peptides can be passed over different forms of βTrCP and a reference surface simultaneously. If binding to βTrCP is occurring, responses should be the same (accounting for differences in density of surface etc) on each surface.
Two different βTrCP protein complexes were immobilised on to an NTA biacore sensor chip. One included the GSTSkp1 fusion (HisβTrCP/GSTSkp1) while the other was immobilised after GST Removal by Thrombin (HisβTrCP/Skp1). To ensure that the GST moiety is completely removed from Skp1, βTrCP/GSTSkp1 was incubated with thrombin ((10units/mg protein) for at least 16 hours at room temperature in 10mMHEPES 150mMNaCl pH7.4+2 mM CaCl2. Thrombin and GST were removed from βTrCP/Skp1 by buffer exchange through a 50 KDa MWCO vivaspin concentrator.
Protein Immobilisation Procedure for NTA Chip
Ni+ (500 μM NiCl) loaded on to surface at a flow rate of 5 μl/min for 60s. EDC/NHS (activates dextran carboxylates) loaded at a flow rate of 5 μl/min for 240s. Protein ([protein]=100 nM to 1 μM) loaded at a flow rate of 10 μl/min for 180s. Strip solution (350 μM EDTA/1M NaCl) added at flow rate of 10 μl/min for 30s (to chelate excess Ni+ and remove non-covalently bound protein e.g. protein oligomers). Quench solution (ethanolamine) at flow rate of 5 μl/min for 240s (to deactivate surface molecules on the chip that have not crosslinked protein). The immobilisation buffer used was 10 mM HEPES pH 7.4, 150 mM NaCl,
GST Capture Procedure (for Immobilisation Via GSTSkp1)
EDC:NHS was injected at 5 μl/min for 4 min to activate surface for amine coupling (this converts carboxyl groups on the surface of the chip to succinamide esters that react with primary amines)
Anti-GST (60 μg/ml). was loaded at 10 μl/min for 4 min resulting in an increase in response units of 6730 (Biacore manual states it should result in ˜7000)
Ethanolamine was injected at 5 μl/min for 5 min to deactivate remaining unreacted esters at surface (quenching).
Injection of a low concentration of purified GST (from kit) was injected for 3 mins at 5 μl/min before running a regeneration cycle with glycine pH2.0 that disrupts the antibody-GST interaction. […]

[7] = Table 11, with spread, read-out: FP IC50/μM
[8] = Tables 1, 3, 7, 8, 10 nM fluorescein-tagged IκB peptide, read-out: FP Assay IC50/μM

Chain of FBW7/Skp1 (Q969H0 whole entry, species assumed): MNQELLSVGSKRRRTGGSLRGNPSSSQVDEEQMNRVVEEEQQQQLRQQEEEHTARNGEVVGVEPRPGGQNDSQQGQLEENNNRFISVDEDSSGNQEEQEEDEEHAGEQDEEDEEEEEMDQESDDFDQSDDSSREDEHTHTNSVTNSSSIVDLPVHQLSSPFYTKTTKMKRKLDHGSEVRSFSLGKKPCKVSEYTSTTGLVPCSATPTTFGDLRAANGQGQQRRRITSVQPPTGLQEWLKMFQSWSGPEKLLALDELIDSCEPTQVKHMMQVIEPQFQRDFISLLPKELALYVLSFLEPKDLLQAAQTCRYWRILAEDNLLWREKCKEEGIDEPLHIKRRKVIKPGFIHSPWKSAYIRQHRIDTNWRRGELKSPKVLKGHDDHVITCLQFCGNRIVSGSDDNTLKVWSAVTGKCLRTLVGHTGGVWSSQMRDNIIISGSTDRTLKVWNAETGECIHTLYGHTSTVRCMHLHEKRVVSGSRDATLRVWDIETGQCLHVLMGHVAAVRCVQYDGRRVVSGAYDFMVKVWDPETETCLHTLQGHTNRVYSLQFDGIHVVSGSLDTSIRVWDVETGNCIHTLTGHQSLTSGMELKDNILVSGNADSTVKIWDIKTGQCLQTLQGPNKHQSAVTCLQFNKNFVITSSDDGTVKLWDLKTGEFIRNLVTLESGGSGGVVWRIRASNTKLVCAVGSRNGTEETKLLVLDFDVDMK
Chain of FBW7/Skp1 (P63208 whole entry partner, species assumed): as the sequence (P63208 whole entry partner, one chain of several) above
Chain of FBW7/Skp1 (Q13616 whole entry partner, species assumed): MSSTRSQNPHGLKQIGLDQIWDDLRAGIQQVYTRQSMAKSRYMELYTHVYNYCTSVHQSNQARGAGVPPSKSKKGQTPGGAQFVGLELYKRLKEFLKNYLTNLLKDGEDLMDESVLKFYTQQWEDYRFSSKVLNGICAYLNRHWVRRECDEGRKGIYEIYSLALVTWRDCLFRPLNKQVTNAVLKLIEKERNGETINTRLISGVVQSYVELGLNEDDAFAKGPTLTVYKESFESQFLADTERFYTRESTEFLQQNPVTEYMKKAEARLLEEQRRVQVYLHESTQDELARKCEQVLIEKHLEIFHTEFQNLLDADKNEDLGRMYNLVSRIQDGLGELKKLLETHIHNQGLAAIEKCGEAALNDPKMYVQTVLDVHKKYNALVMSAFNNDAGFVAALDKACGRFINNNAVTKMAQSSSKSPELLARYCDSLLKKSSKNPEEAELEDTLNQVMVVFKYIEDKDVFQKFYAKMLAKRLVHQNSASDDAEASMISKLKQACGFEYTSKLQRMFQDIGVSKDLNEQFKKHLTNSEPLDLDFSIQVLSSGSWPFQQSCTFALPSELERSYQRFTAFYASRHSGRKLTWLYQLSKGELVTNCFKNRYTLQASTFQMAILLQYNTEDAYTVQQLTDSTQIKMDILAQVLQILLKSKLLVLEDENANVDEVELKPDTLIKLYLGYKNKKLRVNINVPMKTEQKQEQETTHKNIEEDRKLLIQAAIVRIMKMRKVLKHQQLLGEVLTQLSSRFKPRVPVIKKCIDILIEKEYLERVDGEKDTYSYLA
Chain of FBW7/Skp1 (P62877 whole entry partner, species assumed): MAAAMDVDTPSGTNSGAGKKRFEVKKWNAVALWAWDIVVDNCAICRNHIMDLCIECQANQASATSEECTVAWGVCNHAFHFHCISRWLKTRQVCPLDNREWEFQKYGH
Chain of β-TrCP1/Skp1 (P63208 2-163 partner limits assumed, one chain of several): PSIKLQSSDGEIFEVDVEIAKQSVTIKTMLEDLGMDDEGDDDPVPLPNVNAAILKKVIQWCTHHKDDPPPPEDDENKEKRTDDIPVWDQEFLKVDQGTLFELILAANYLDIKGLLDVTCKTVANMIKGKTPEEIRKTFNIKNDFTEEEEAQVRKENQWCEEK
Chain of βTrCP/Skp1 (P63208 whole entry partner, one chain of several): as the sequence (P63208 whole entry partner, one chain of several) above
Chain of Skp2 (Q13309 whole entry, species assumed): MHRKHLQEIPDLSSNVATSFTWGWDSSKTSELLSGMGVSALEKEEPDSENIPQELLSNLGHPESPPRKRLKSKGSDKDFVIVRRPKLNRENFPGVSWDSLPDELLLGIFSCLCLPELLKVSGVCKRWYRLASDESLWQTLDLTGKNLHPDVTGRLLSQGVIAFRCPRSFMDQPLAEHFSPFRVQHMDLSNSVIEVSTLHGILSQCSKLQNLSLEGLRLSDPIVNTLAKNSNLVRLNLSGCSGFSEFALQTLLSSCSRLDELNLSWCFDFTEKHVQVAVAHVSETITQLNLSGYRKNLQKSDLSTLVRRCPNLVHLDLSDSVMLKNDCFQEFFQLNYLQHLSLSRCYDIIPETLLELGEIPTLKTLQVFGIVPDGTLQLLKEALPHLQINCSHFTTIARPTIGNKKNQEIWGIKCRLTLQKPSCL
Chain of Skp2 (P63208 whole entry partner, species assumed): as the sequence (P63208 whole entry partner, one chain of several) above
Chain of Skp2 (Q13616 whole entry partner, species assumed): as the sequence (Q13616 whole entry partner, species assumed) above
Chain of Skp2 (P62877 whole entry partner, species assumed): as the sequence (P62877 whole entry partner, species assumed) above

Row | SMILES | IC50 [1, 7] [µM] | inhibition at 100 µM [2] [%] | inhibition at 10 µM [2] [%] | Biotin Pulldown Assay 10 μM [3] | Biotin Pulldown Assay 100 μM [3] | inhibition at 100 µM [4] [%] | inhibition at 10 µM [4] [%] | Ub Assay 10 μM [5] | Ub Assay 100 μM [5] | Kd [6] [µM] | IC50 [1, 8] [µM]
1 | NC(=O)[C@H](CCC(=O)O)NC(=O)[C@H](Cc1ccc([N+](=O)[O-])cc1)NC(=O)[C@H](Cc1ccccc1F)NC(=O)CNC(=O)[C@H](CCC(=O)O)NC(=O)CCC(=O)O [UBP003, Suc-EGF(2F)F(4NO2)E-NH2] (Suc-EG[Phe(2-F)][Phe(4-NO2)]E-NH2) | 4.91 ± 0.702 | 0 | 0 | no effect/ | reduces | 11 | 8 | no effect/ | inhibits | 8 ± 0.26 | 
2 | NC(=O)[C@H](CCC(=O)O)NC(=O)[C@H](Cc1c[nH]cn1)NC(=O)[C@H](Cc1cccc(F)c1)NC(=O)CNC(=O)[C@H](CCC(=O)O)NC(=O)CCC(=O)O [UBP015, Suc-EGF(3F)HE-NH2] (Suc-EG[Phe(3-F)]HE-NH2) | 0.521 ± 0.059 | 83 | 12 | reduces/ | inhibits | 18 | 3 | reduces/ | inhibits | 0.4 ± 0.021 | 0.521
3 | NC(=O)[C@H](CCC(=O)O)NC(=O)[C@H](Cc1cccc2ccccc12)NC(=O)[C@H](Cc1ccc(O)cc1)NC(=O)CNC(=O)[C@H](CCC(=O)O)NC(=O)CCC(=O)O [UBP009, Suc-EGY1NalE-NH2] (Suc-EGY[1Nal]E-NH2) | 1.15 ± 0.222 | 5 | 1 | no effect/ | inhibits | 6 | 0 | reduces/ | inhibits | 1.49 ± 0.625 | 1.15
4 | CC[C@H](C)[C@H](NC(=O)CNC(=O)[C@H](COP(=O)(O)O)NC(=O)[C@@H](N)CC(=O)O)C(=O)N[C@@H](Cc1ccccc1)C(=O)N[C@@H](CCC(=O)O)C(N)=O [UBP001, DpSGIFE-NH2] (H-D[pS]GIFE-NH2) | 1.24 ± 0.145 | 0 | 0 | reduces/ | inhibits | 13 | 8 | reduces/ | inhibits | 1.48 ± 0.286 | 
5 | CC(=O)N[C@H](CC(=O)O)C(=O)N[C@@H](CCC(=O)O)C(=O)NCC(=O)N[C@@H](Cc1cccc(F)c1)C(=O)N[C@@H](Cc1cccc2ccccc12)C(=O)N[C@@H](CCC(=O)O)C(N)=O [UBP016, Ac-dEGF(3F)1NalE-NH2] (Ac-[dD]EG[Phe(3-F)][1Nal]E-NH2) | 0.112 ± 0.017 | 8 | 3 | reduces/ | inhibits | 7 | 0 | reduces/ | inhibits |  | 
